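GI50 = concentration required for 50% inhibition of growth. TGI marks complete inhibition of growth.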
Legend:
Assay in all cases: NCI-60 cell line screen, 384-well format
[1] = system: BT-549 breast
[2] = system: CAKI-1 renal
[3] = system: HCC-2998 colon
[4] = system: HCT-15 colon
[5] = system: HS 578T breast
[6] = system: KM12 colon
[7] = system: M14 melanoma
[8] = system: MDA-MB-435 melanoma
[9] = system: MDA-MB-468 breast
[10] = system: NCI-H322M lung
[11] = system: OVCAR-8 ovarian
[12] = system: SK-MEL-5 melanoma
[13] = system: UACC-257 melanoma

SMILES | GI50 [1] | TGI [1] | GI50 [2] | TGI [2] | GI50 [3] | TGI [3] | GI50 [4] | TGI [4] | GI50 [5] | TGI [5] | GI50 [6] | TGI [6] | GI50 [7] | TGI [7] | GI50 [8] | TGI [8] | GI50 [9] | TGI [9] | GI50 [10] | TGI [10] | also measured
Cc1cc(-c2nc(C(=O)Nc3cc4oc(N5CCOCC5)nc4nc3N3CC[C@@H](O)C3)co2)ccn1 | 16300 nM | 82100 nM | 8010 nM | 38300 nM | 21200 nM | > 100000 nM | 20200 nM | > 100000 nM | 2370 nM | 23400 nM | 424 nM | > 100000 nM | 27900 nM | > 100000 nM | 29300 nM | > 100000 nM | 8630 nM | 33100 nM | 30100 nM | > 100000 nM | GI50 [11]: 38100 nM; TGI [11]: > 100000 nM; GI50 [12]: 11600 nM; TGI [12]: 59000 nM; GI50 [13]: 37500 nM; TGI [13]: > 100000 nM
C[C@@H](Oc1cc(-n2cnc3ccc(CN4CCN(C)CC4)cc32)sc1C(N)=O)c1ccccc1C(F)(F)F | 422 nM | 1910 nM | 1630 nM | 4500 nM | 595 nM | 1890 nM | 374 nM | 1200 nM | 1010 nM | 2580 nM | 296 nM | 982 nM | 573 nM | 1860 nM | 244 nM | 602 nM | 214 nM | 446 nM | 1780 nM | 9790 nM | GI50 [11]: 348 nM; TGI [11]: 1290 nM; GI50 [12]: 359 nM; TGI [12]: 1640 nM; GI50 [13]: 1150 nM; TGI [13]: 2370 nM
